The structures appear in SMILES notation.

For experiment [1], the target named is T1, ScRR (ScRR1 with ScRR2•ScRR4) (Saccharomyces cerevisiae, UniProt P21524).
T1 sequence (P21524 1-888): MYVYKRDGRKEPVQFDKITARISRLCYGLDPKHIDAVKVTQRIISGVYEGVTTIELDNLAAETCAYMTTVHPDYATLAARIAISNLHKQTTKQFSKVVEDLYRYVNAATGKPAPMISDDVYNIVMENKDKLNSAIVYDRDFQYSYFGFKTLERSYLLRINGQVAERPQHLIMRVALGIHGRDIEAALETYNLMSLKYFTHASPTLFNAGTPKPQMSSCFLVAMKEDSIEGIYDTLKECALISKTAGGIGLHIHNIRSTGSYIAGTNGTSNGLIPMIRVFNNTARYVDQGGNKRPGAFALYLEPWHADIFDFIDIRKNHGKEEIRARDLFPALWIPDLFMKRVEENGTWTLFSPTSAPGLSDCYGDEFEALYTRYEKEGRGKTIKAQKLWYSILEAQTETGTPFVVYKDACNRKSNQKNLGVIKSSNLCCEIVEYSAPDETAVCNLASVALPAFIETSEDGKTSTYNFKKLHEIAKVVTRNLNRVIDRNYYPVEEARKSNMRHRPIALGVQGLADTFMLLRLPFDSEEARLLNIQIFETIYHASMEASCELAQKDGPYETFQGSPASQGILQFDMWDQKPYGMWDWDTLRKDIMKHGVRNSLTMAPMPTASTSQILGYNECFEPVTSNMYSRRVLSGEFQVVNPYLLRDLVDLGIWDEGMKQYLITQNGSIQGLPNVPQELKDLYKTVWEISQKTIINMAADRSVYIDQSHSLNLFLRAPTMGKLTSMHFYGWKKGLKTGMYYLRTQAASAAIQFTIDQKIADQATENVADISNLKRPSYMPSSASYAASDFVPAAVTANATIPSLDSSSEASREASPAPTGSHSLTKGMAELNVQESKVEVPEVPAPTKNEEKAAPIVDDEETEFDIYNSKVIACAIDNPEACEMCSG
T1 sequence (P09938 1-399 partner): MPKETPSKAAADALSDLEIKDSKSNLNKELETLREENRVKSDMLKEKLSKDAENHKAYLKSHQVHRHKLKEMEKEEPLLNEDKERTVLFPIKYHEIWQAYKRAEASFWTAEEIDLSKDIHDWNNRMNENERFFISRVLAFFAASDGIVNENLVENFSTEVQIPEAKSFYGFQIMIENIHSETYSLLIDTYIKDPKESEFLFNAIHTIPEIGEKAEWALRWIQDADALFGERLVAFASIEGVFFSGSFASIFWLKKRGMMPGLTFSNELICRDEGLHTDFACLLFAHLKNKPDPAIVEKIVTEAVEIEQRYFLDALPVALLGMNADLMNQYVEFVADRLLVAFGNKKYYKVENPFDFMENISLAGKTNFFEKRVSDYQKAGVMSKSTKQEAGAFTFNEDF
T1 sequence (P49723 1-345 partner): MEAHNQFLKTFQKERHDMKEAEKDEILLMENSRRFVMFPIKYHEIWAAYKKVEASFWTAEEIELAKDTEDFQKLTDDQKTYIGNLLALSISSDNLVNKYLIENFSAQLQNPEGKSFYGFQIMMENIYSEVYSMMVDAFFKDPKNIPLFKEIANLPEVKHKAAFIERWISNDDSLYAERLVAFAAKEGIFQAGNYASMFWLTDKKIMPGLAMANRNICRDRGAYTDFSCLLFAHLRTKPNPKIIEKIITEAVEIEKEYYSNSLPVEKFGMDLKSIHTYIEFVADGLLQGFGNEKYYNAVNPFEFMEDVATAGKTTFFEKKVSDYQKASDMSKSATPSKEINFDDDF
Nature of the experiment: [3H]CDP reduction assay, borate chromatography, isotope counting. It counts as biochemical. The settings on record: ATP effector, 0.05 to 1 mM CDP (hexamer); labelled compound; C-site.

Experiment [2] deals with T1, ScRR (ScRR1 with ScRR2•ScRR4). Nature of the experiment: NDP reduction assay. It counts as biochemical. The settings on record: read-out: % inhibition at 20 μM.

For `Nc1ccn([C@@H]2O[C@H](COP(=O)(O)OP(=O)(O)O)[C@@H](O)[C@H]2O)c(=O)n1` [CDP], in experiment [1], the “[3H]CDP reduction assay, borate chromatography, isotope counting” value was “When ATP/CDP was used as the effector-substrate pair, [^3H]CDP concentrations were varied”.

A word on the inhibition: it is the drop in the measured response relative to a control, in per cent. For the compound `Nc1ncnc2c1ncn2[C@H]1C[C@H](O)[C@@H](COP(=O)(O)OP(=O)(O)OP(=O)(O)O)O1` [dATP], the inhibition at 20 µM in experiment [2] is around 50%.

(Values after paper PMC4925217 (FEBS letters, 2016).)
